Results: US10208089B2, “Modulation of complement activity” (priority 2014, dated 2019)
Entries after “also recorded” stand apart in the source; their conditions may differ. Like-named read-outs stand apart in the source and are kept apart here. Starred links: 1 amine or outer side, 2 acyl side, 3 side chain; linkers in the order of their positions; H or OH if unused. Positions of bridges follow the written chain, without caps; N, C: chain ends. Non-standard residues stand in square brackets, D forms with d. Residues, ends and D or L forms follow the SMILES beside them. Trp(7-aza) = N[C@@H](Cc1c[nH]c2ncccc12)C(=O)O; mXylylene = c1cc(C[*:1])cc(C[*:2])c1; pXylylene = c1cc(C[*:2])ccc1C[*:1]; Phg = N[C@H](C(=O)O)c1ccccc1; Tle = CC(C)(C)[C@H](N)C(=O)O; NMeS = CN[C@@H](CO)C(=O)O; Nva = CCC[C@H](N)C(=O)O

Legend:
[1] = biological target: T1, C5 (Homo sapiens, UniProt P01031); assay: Competitive fluorescence polarization assay with probe R3076; format: binding; design: purchased Complement Technology, Tyler, Tex
T1 sequence (P01031 19-1676): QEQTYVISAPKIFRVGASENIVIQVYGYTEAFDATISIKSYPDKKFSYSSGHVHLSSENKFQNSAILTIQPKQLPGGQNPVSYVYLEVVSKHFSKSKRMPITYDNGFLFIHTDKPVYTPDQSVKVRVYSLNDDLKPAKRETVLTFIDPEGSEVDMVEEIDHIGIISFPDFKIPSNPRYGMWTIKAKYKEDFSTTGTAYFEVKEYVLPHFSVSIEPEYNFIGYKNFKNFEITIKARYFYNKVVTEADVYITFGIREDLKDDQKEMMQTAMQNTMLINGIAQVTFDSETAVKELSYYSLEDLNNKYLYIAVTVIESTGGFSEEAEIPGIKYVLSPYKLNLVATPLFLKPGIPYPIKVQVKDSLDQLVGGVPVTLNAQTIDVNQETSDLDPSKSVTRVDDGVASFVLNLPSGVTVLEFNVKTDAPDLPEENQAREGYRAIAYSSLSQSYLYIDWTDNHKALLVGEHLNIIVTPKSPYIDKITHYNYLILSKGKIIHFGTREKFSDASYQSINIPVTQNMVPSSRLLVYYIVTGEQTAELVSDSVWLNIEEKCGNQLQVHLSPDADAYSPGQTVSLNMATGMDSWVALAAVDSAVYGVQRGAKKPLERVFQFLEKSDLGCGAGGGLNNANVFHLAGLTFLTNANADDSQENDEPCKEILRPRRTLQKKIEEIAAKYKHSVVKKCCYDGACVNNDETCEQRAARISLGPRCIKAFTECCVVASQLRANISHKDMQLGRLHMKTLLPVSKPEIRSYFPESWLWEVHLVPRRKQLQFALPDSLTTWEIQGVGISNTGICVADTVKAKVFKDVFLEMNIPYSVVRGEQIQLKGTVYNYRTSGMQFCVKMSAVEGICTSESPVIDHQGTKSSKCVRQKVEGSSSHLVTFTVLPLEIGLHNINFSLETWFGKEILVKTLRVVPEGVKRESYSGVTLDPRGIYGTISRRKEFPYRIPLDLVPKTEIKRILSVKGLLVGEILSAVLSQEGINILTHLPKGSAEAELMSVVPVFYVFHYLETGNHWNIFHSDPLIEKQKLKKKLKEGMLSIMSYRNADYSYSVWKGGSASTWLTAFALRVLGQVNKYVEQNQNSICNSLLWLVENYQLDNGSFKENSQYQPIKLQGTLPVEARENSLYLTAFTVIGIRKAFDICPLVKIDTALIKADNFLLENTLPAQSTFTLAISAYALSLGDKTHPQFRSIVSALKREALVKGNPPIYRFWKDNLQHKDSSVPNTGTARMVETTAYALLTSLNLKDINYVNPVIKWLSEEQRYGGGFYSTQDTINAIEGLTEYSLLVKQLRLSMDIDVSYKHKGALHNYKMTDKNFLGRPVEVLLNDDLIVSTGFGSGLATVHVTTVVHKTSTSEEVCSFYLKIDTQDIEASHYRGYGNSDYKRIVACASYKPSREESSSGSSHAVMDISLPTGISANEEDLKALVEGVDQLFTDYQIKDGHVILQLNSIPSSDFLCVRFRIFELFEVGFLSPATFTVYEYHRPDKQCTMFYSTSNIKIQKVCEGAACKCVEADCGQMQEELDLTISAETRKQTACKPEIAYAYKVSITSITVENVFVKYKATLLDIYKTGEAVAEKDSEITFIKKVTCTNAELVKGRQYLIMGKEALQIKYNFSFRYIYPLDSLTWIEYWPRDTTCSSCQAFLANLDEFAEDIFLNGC
Description: FP allows binding events to be measured in a homogenous solution.
Polarization was measured over time, until binding reached equilibrium. KD was determined using Graphpad Prism (using “Saturating Binding Curves, One Site—Specific Binding With Hill Slope” as the curve fit to determine KD).
10 μl of this working stock was then added to each well in the assay plate. The assay plate was incubated at room temperature, protected from light, for 20 minutes to allow binding to reach equilibrium.
Test articles listed in Table 7 were subsequently diluted in DMSO then assay buffer, comprising 10 2-fold dilutions and were then added to the assay plate in triplicate, rapidly. The assay plate was then incubated in the Paradigm (Molecular Devices, Sunnyvale, Calif.) plate reader for 60 minutes at 25° C.
After incubation for 60 minutes, the plate was read using the Paradigm FP protocol (Molecular Devices, Sunnyvale, Calif.) and raw polarization values were imported into Graphpad Prism.

[2] = biological target: T1, C5; assay: Human hemolysis assay (RBC lysis assay using complete human sera); format: cell-based; design: with complete human sera (Complement Technology, Tyler Tex.) and polypeptides; tissue Complement Technology, Tyler Tex; host or cells: complete human serum; conditions: inhibition of lysis of antibody-sensitized sheep erythrocytes, complete human sera
[3] = biological target: T1, C5; assay: Alternative human hemolysis assay using C5 depleted sera and purified human C5; format: cell-based; design: purchased Complement Technology, Tyler, Tex; conditions: antibody-sensitized sheep erythrocytes, 1.5% human C5 depleted sera and 0.5 nM purified human C5
[4] = Compound stability in human plasma; format: in vitro ADME
Description: Compounds were assayed for stability in human plasma under the following conditions. Human plasma was obtained from Bioreclamation (Westbury, N.Y.) and collected in sodium heparin. Plasma was adjusted to pH 7.4. DMSO stocks at 10 mM concentration were prepared for the test compounds. Aliquots of the DMSO solutions were dosed into 1 mL of plasma, which had been pre-warmed to 37° C., at a final test compound concentration of 10 μM. The vials were kept in a benchtop THERMOMIXER® (Eppendorf, Hauppauge, N.Y.) for the duration of the experiment. Aliquots (100 μL) were taken at each timepoint and added to a 96-well plate that had been pre-filled with 300 μL of an acetonitrile solution containing mixture of the internal standards (metoprolol, propranolol and warfarin each at 500 ng/mL). […] Aliquots of the supernatant were removed and analyzed by LC-HRAMS.

[5] = biological target: T2, rat C5 (Rattus norvegicus, UniProt P08650); assay: Ex vivo hemolysis assays in the rat study
T2 construct: from tissue; host or cells: plasma of dosed male rats
T2 sequence (P08650 19-1681): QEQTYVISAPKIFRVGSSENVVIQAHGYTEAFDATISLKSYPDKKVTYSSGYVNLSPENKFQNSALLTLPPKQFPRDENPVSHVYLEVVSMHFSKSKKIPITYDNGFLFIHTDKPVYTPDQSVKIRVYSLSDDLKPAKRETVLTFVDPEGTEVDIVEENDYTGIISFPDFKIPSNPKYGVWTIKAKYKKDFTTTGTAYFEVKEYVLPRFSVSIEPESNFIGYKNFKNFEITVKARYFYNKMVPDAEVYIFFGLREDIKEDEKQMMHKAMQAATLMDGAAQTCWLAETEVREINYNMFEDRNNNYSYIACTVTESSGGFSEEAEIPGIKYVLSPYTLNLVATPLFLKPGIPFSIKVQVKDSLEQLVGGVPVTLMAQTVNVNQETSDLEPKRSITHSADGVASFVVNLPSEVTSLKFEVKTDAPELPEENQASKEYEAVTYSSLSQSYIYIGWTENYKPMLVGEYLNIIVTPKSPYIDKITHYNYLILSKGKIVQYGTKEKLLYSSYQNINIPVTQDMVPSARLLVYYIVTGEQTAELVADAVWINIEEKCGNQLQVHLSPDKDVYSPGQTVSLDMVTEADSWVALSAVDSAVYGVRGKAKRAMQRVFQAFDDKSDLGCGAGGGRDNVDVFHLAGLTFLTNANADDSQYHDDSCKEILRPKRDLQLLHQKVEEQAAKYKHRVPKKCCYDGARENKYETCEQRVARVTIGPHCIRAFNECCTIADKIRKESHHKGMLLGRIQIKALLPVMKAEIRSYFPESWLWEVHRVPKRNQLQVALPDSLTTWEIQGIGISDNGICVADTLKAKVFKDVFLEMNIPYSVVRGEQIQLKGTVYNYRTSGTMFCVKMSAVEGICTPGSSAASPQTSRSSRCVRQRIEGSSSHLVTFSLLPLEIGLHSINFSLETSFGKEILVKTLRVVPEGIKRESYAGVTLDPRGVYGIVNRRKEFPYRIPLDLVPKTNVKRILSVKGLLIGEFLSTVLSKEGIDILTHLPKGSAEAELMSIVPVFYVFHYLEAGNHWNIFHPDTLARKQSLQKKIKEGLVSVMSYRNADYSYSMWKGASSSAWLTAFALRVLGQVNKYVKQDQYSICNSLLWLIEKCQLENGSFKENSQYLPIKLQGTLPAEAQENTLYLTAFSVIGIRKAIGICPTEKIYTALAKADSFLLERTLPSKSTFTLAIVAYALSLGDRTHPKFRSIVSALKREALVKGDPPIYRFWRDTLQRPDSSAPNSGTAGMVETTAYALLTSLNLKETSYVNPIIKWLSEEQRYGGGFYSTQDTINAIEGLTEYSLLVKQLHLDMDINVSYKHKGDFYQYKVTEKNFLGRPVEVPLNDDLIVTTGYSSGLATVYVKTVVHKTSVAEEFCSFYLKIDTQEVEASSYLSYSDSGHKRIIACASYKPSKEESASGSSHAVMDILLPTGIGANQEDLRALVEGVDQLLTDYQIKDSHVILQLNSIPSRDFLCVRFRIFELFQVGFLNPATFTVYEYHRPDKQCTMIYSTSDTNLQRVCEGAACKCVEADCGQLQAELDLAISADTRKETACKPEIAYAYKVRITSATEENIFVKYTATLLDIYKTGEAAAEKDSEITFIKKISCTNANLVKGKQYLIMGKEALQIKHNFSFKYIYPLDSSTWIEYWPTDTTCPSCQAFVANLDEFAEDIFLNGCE

[6] = average of Exp 1 and Exp 2, read-out: Avg, nM IC50
[7] = average of Exp 1 and Exp 2, read-out: Avg, nM Ki
[8] = competition with probe R3076 25 nM, C5 50 nM, 60 min at 25° C., experiment 1, read-out: IC50 nM, Exp 1
[9] = competition with probe R3076 25 nM, C5 50 nM, 60 min at 25° C., experiment 1, read-out: Ki nM, Exp 1
[10] = competition with probe R3076 25 nM, C5 50 nM, 60 min at 25° C., experiment 2, read-out: IC50 nM, Exp 2
[11] = competition with probe R3076 25 nM, C5 50 nM, 60 min at 25° C., experiment 2, read-out: Ki nM, Exp 2

CSCC[C@H](N)C(=O)N[C@H]1CSCc2cccc(c2)CSC[C@@H](C(=O)N[C@@H](CC(=O)O)C(=O)N[C@H](C(=O)N[C@@H](Cc2ccc(O)cc2)C(=O)N[C@@H](Cc2c[nH]c3ccccc23)C(=O)N[C@@H](CCC(=O)O)C(N)=O)C(C)C)NC(=O)[C@H](Cc2ccccc2)NC(=O)[C@H](CCCNC(=N)N)NC(=O)[C@H](CCC(=O)O)NC(=O)[C@H](C(C)C)NC1=O [Compound R3043, [mXylyl(2,7)]M-C-V-E-R-F-C-D-V-Y-W-E-NE2] (H-MCVERFCDVYWE-NH2; linker 2-7 via mXylylene)
IC50 [1, 6]: 4230 nM | Ki [1, 7]: 874 nM | IC50 [1, 8]: 4330 nM | Ki [1, 9]: 866 nM | IC50 [1, 10]: 4120 nM | Ki [1, 11]: 882 nM | competition with labeled probe / affinity for C5 (in words) ([1]; probe R3076 25 nM, C5 50 nM): weak affinity | IC50 [2]: 934 nM

CCC[C@H](NC(=O)[C@H](Cc1ccc(O)cc1)NC(=O)[C@H](CC(N)=O)NC(=O)[C@H](CCC)NC(=O)[C@H](CCC(=O)O)NC(=O)[C@@H](NC(=O)[C@H](Cc1c[nH]c2ncccc12)NC(=O)[C@@H](NC(=O)[C@H](CS)NC(=O)[C@H](Cc1ccc(O)cc1)NC(=O)[C@@H]1CCCN1C(=O)[C@H](Cc1ccc(O)cc1)NC(C)=O)c1ccccc1)C(C)(C)C)C(=O)N[C@@H](CCC(=O)O)C(N)=O [Compound R3023, Ac-Y-P-Y-C-Phg-azaTrp-Tbg-E-Nvl-N-Y-Nvl-E-NH2] (Ac-YPYC[Phg][Trp(7-aza)][Tle]E[Nva]NY[Nva]E-NH2)
IC50 [1, 6]: > 1000 nM | Ki [1, 7]: > 1000 nM | IC50 [1, 8]: > 1000 nM | Ki [1, 9]: > 1000 nM | IC50 [1, 10]: > 1000 nM | Ki [1, 11]: > 1000 nM | competition with labeled probe / affinity for C5 (in words) ([1]; probe R3076 25 nM, C5 50 nM): no activity at the highest concentration tested; also recorded: not detected at the highest concentration tested; also recorded: no affinity | IC50 [2]: > 100000 nM

CCCCCCCCCCCCCCCC(=O)NCCCC[C@H](NC(=O)[C@@H](NC(=O)[C@@H]1CCCN1C(=O)[C@H](Cc1ccc(O)cc1)NC(=O)[C@H](CCC(=O)O)NC(=O)[C@H](Cc1c[nH]c2ncccc12)NC(=O)[C@H](Cc1ccc(O)cc1)NC(=O)[C@@H](NC(=O)[C@H](CC(=O)O)N(C)C(=O)[C@@H]1CC(=O)NCCCC[C@H](NC(C)=O)C(=O)N[C@@H](C(C)C)C(=O)N[C@@H](CCC(=O)O)C(=O)N[C@@H](CCCNC(=N)N)C(=O)N[C@@H](Cc2ccccc2)C(=O)N1)C(C)(C)C)C1CCCCC1)C(N)=O [Compound R3194, [cyclo(1,6)]Ac-K-V-E-R-F-D-(N-Me)D-Tbg-Y-azaTrp-E-Y-P-Chg-(Lys-C16)-NH2]
IC50 [3]: 15.5 nM

CCC[C@H](NC(=O)[C@@H]1CSCc2ccc(cc2)CSC[C@H](NC(=O)[C@H](CCC)NC(C)=O)C(=O)N[C@@H](c2ccccc2)C(=O)N[C@@H]([C@@H](C)O)C(=O)N[C@@H](Cc2c[nH]c3ncccc23)C(=O)N[C@@H](CCC(=O)O)C(=O)N[C@@H](Cc2ccc(O)cc2)C(=O)N(C)[C@@H](CO)C(=O)N[C@@H](Cc2c[nH]cn2)C(=O)N1)C(N)=O [Compound R3050, [pXylyl(2,10)]Ac-Nvl-C-Phg-T-azaTrp-E-Y-(N-Me)S-H-C-Nvl-NH2] (Ac-[Nva]C[Phg]T[Trp(7-aza)]EY[NMeS]HC[Nva]-NH2; linker 2-10 via pXylylene)
IC50 [1, 6]: 280 nM | Ki [1, 7]: 64.3 nM | IC50 [1, 8]: 267 nM | Ki [1, 9]: 71.1 nM | IC50 [1, 10]: 293 nM | Ki [1, 11]: 57.6 nM | competition with labeled probe / affinity for C5 (in words) ([1]; probe R3076 25 nM, C5 50 nM): relatively strong affinity | stability in human plasma (in words) ([4]; 37° C., up to 24 hrs): highly stable | half-life at 10 μM ([4]; pH 7.4, 37° C., 10 μM): > 24 h | Percent remaining at time (hrs): 0 hrs ([4]; pH 7.4, 37° C., 10 μM, 0 hrs): 100% | remaining at 2 h, 10 μM ([4]; plasma (collected in sodium heparin), pH 7.4, 37° C., 10 μM, 2 hrs, read-out: Percent remaining at time (hrs): 2 hrs): 109% | remaining at 4 h, 10 μM ([4]; plasma (collected in sodium heparin), pH 7.4, 37° C., 10 μM, 4 hrs, read-out: Percent remaining at time (hrs): 4 hrs): 100% | remaining at 12 h, 10 μM ([4]; plasma (collected in sodium heparin), pH 7.4, 37° C., 10 μM, 12 hrs, read-out: Percent remaining at time (hrs): 12 hrs): 88% | remaining at 24 h, 10 μM ([4]; plasma (collected in sodium heparin), pH 7.4, 37° C., 10 μM, 24 hrs, read-out: Percent remaining at time (hrs): 24 hrs): 98.1% | IC50 [2]: 42.9 nM

CCC[C@H](NC(C)=O)C(=O)N[C@H]1CSCc2cccc(c2)CSC[C@@H](C(=O)N[C@@H](CCC)C(=O)N2CCC[C@H]2C(N)=O)NC(=O)[C@H](Cc2c[nH]cn2)NC(=O)[C@H](CO)N(C)C(=O)[C@H](Cc2ccc(O)cc2)NC(=O)[C@H](CCC(=O)O)NC(=O)[C@H](Cc2c[nH]c3ncccc23)NC(=O)[C@H]([C@@H](C)O)NC(=O)[C@H](c2ccccc2)NC1=O [Compound R3011, [mXylyl(2,10)]Ac-Nvl-C-Phg-T-azaTrp-E-Y-(N-Me)S-H-C-Nvl-P-NH2] (Ac-[Nva]C[Phg]T[Trp(7-aza)]EY[NMeS]HC[Nva]P-NH2; linker 2-10 via mXylylene)
IC50 [1, 6]: 278 nM | Ki [1, 7]: 80 nM | IC50 [1, 8]: 295 nM | Ki [1, 9]: 73.2 nM | IC50 [1, 10]: 261 nM | Ki [1, 11]: 86.9 nM | competition with labeled probe / affinity for C5 (in words) ([1]; probe R3076 25 nM, C5 50 nM): relatively strong affinity | IC50 [2]: 112 nM

CCC[C@H](NC(C)=O)C(=O)N[C@@H](CS)C(=O)N[C@@H](Cc1ccc(O)cc1)C(=O)N[C@@H](CCC(=O)O)C(=O)N[C@@H](CC(N)=O)C(=O)N[C@H](C(=O)N[C@@H](Cc1ccc(O)cc1)C(=O)N[C@@H](Cc1c[nH]c2ncccc12)C(=O)N[C@@H](CCC(=O)O)C(=O)N[C@@H](Cc1ccc(O)cc1)C(=O)N1CCC[C@H]1C(=O)N[C@H](C(=O)N1CCC[C@H]1C(N)=O)c1ccccc1)C(C)(C)C [Compound R3003, Ac-Nvl-C-Y-E-N-Tbg-Y-azaTrp-E-Y-P-Phg-P-NH2] (Ac-[Nva]CYEN[Tle]Y[Trp(7-aza)]EYP[Phg]P-NH2)
IC50 [1, 6]: 68.4 nM | IC50 [1, 8]: 72.7 nM | Ki [1, 9]: 10.4 nM | IC50 [1, 10]: 64.1 nM | Ki [1, 11]: 8.69 nM | competition with labeled probe / affinity for C5 (in words) ([1]; probe R3076 25 nM, C5 50 nM): most potent | Ki ([1]; probe R3076 25 nM, C5 50 nM, read-out: Ki): 9.54 nM | IC50 [2]: 13.9 nM

CCC[C@H](NC(=O)[C@@H](NC(=O)[C@@H]1CCCN1C(=O)[C@H](Cc1ccc(O)cc1)NC(=O)[C@H](CCC(=O)O)NC(=O)[C@H](Cc1c[nH]c2ncccc12)NC(=O)[C@H](Cc1ccc(O)cc1)NC(=O)[C@@H](NC(=O)[C@H](CC(=O)O)NC(=O)[C@@H]1CSCc2cccc(c2)CSC[C@H](NC(C)=O)C(=O)N[C@@H](C(C)C)C(=O)N[C@@H](CCC(=O)O)C(=O)N[C@@H](CCCNC(=N)N)C(=O)N[C@@H](Cc2ccccc2)C(=O)N1)C(C)(C)C)C1CCCCC1)C(=O)O [Compound R3201, [mXylyl(1,6)]Ac-C-V-E-R-F-C-D-Tbg-Y-azaTrp-E-Y-P-Chg-Nvl]
inhibitory activity in ex vivo hemolysis assays (in words) [5]: very little inhibitory activity | binding to rat C5 (in words) ([5]; in vivo): do not bind

CCC[C@H](NC(=O)[C@@H]1CCCN1C(=O)[C@H](CCC)NC(=O)[C@@H]1CSCc2cccc(c2)CSC[C@H](NC(C)=O)C(=O)N[C@@H](c2ccccc2)C(=O)N[C@@H]([C@@H](C)O)C(=O)N[C@@H](Cc2c[nH]c3ncccc23)C(=O)N[C@@H](CCC(=O)O)C(=O)N[C@@H](Cc2ccc(O)cc2)C(=O)N(C)[C@@H](CO)C(=O)N[C@@H](Cc2c[nH]cn2)C(=O)N1)C(N)=O [Compound R3014, [mXylyl(1,9)]Ac-C-Phg-T-azaTrp-E-Y-(N-Me)S-H-C-Nvl-P-Nvl-NH2] (Ac-C[Phg]T[Trp(7-aza)]EY[NMeS]HC[Nva]P[Nva]-NH2; linker 1-9 via mXylylene)
IC50 [1, 6]: 6820 nM | Ki [1, 7]: 1490 nM | IC50 [1, 8]: 6060 nM | Ki [1, 9]: 1400 nM | IC50 [1, 10]: 7580 nM | Ki [1, 11]: 1590 nM | competition with labeled probe / affinity for C5 (in words) ([1]; probe R3076 25 nM, C5 50 nM): weak affinity | IC50 [2]: 1420 nM
